Measurements from patent US20180368410A1, “MICROBIOCIDAL OXADIAZOLE DERIVATIVES” (SYNGENTA PARTICIPATIONS AG, priority 2015, published 2018).

Assays:
[1] = tested on: Glomerella Lacenarium (Colletotrichum lacenarium); test: Glomerella lagenarium (Colletotrichum lagenarium) liquid culture / cucumber / preventative (anthracnose); type: cell-based; settings: 20 ppm in the applied formulation, liquid culture in PDB, 24° C., inhibition of growth measured photometrically 3 to 4 days after application, vs untreated control, read-out: disease control
Method in brief: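 Photometric measurement of fungal growth inhibition 3 to 4 days after application gives percent activity relative to untreated check. Conidia were suspended in potato dextrose broth and combined with DMSO compound solutions; incubation at 24° C.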

[2] = tested on: Uromyces viciae-Fabael; test: Uromyces viciae-fabae / field bean / leaf disc preventative (faba-bean rust); type: in vivo, Uromyces viciae-fabae on field bean; settings: foliar, 288 h, 100 ppm in the applied formulation, inoculated two hours after application, assessed 12 days after application, vs untreated control leaf discs, read-out: disease control
Procedure: Leaf disks or leaf segments of various plant species are cut from plants grown in a greenhouse. The cut leaf disks or segments are placed in multiwell plates (24-well format) onto water agar. The leaf disks are sprayed with a test solution before (preventative) or after (curative) inoculation. Compounds to be tested are prepared as DMSO solutions (max. 10 mg/ml) which are diluted to the appropriate concentration with 0.025% Tween20 just before spraying. The inoculated leaf disks or segments are incubated under defined conditions (temperature, relative humidity, light, etc.) according to the respective test system. A single evaluation of disease level is carried out 3 to 14 days after inoculation, depending on the pathosystem. Percent disease control relative to the untreated check leaf disks or segments is then calculated.
Field bean leaf discs are placed on water agar in multiwell plates (96-well format) and 10 μl of the formulated test compound diluted in acetone and a spreader pipetted onto the leaf disc. Two hours after application leaf discs are inoculated by spraying a spore suspension on the lower leaf surface. The leaf discs are incubated in a climate cabinet at 22° C. with 18 hour day and 70% relative humidity. The activity of a compound is assessed as percent disease control compared to untreated when an appropriate level of disease damage appears in untreated check leaf disks (12 days after application).
The following compounds at 100 ppm in the applied formulation give at least 80% disease control in this test when compared to untreated control leaf discs under the same conditions, which show extensive disease development.

[3] = tested on: Puccinia recondita f. Sp. Tritici; test: Puccinia recondita f. sp. tritici / wheat / leaf disc preventative (brown rust); type: in vivo, Puccinia recondita f. sp. tritici on wheat cv. Kanzler; settings: foliar, 200 ppm in the applied formulation, inoculated 1 day after application, assessed 7 to 9 days after application, vs untreated control leaf disks, read-out: disease control
Method in brief: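 Wheat cv. Kanzler leaf segments on agar were sprayed with compound (DMSO stock diluted with 0.025% Tween20) 1 day before inoculation with spores. Segments were held at 19 °C, 75% rh, 12 h light/dark. Percent disease control versus untreated was scored 7–9 days after application.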

[4] = tested on: Phakopsora pachyrhizi; test: Phakopsora pachyrhizi / soybean / leaf disc preventative (Asian soybean rust); type: in vivo, Phakopsora pachyrhizi on soybean; settings: foliar, 200 ppm in the applied formulation, inoculated one day after application, assessed 12 to 14 days after application, vs untreated control leaf disks, read-out: disease control
Method in brief: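 Read-out is percent disease control relative to untreated check discs, assessed once untreated discs show adequate disease, 12 to 14 days after application. Compounds, tested at 200 ppm in the applied formulation, are sprayed onto soybean leaf discs one day before inoculation with a spore suspension.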

[5] = tested on: Puccinia recondita f. Sp. Triticil; test: Puccinia recondita f. sp. tritici / wheat / leaf disc curative (brown rust); type: in vivo, Puccinia recondita f. sp. tritici on wheat cv. Kanzler; settings: foliar, 200 ppm in the applied formulation, applied 1 day after inoculation, assessed 6 to 8 days after application, vs untreated control leaf disks, read-out: disease control
Method in brief: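 Read-out is percent disease control relative to untreated segments, assessed 6 to 8 days after treatment once check disease is adequate. Kanzler wheat leaf segments on agar receive fungal spores, then test compound (DMSO stock diluted in 0.025% Tween20 or water) 1 day later, under 19° C and 75% relative humidity.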

| Compound | inhibition of growth at 20 ppm [1] [%] | pest or weed control at 100 ppm [2] [%] | pest or weed control at 200 ppm [3] [%] | pest or weed control at 200 ppm [4] [%] | pest or weed control at 200 ppm [5] [%] | melting point [°C] |
| --- | --- | --- | --- | --- | --- | --- |
| COc1ccccc1C(=O)NCc1ccc(-c2noc(C(F)(F)F)n2)cc1 [Compound 1.6, 2-methoxy-N-[[4-[5-(trifluoromethyl)-1,2,4-oxadiazol-3-yl]phenyl]methyl]benzamide] | ≥ 80 | ≥ 80 | ≥ 80 | ≥ 80 | ≥ 80 | – |
| O=C(NCc1ccc(-c2noc(C(F)(F)F)n2)cc1)C1(c2ccc(Cl)cc2)CCC1 [Compound 1.13, 1-(4-chlorophenyl)-N-[[4-[5-(trifluoromethyl)-1,2,4-oxadiazol-3-yl]phenyl]methyl] cyclobutanecarboxamide] | – | ≥ 80 | ≥ 80 | – | – | – |
| O=C(NCc1ccc(-c2noc(C(F)(F)F)n2)cc1)C1(c2ccccc2)CC1 [Compound 1.14, 1-phenyl-N-[[4-[5-(trifluoromethyl)-1,2,4-oxadiazol-3-yl]phenyl]methyl] cyclopropanecarboxamide] | ≥ 80 | ≥ 80 | ≥ 80 | – | – | – |
| O=C(NCc1ccc(-c2noc(C(F)(F)F)n2)cc1)C1CC1c1ccccc1 (stereo not shown) [Compound 1.15, 2-phenyl-N-[[4-[5-(trifluoromethyl)-1,2,4-oxadiazol-3-yl]phenyl]methyl] cyclopropanecarboxamide] | ≥ 80 | ≥ 80 | ≥ 80 | – | – | – |
| O=C(Cc1cccnc1)NCc1ccc(-c2noc(C(F)(F)F)n2)cc1 [Compound 1.17, 2-(3-pyridyl)-N-[[4-[5-(trifluoromethyl)-1,2,4-oxadiazol-3-yl]phenyl]methyl]acetamide] | – | ≥ 80 | ≥ 80 | – | ≥ 80 | – |
| O=C(NCc1ccc(-c2noc(C(F)(F)F)n2)cc1)C1CCOC1 (stereo not shown) [Compound 1.18, N-[[4-[5-(trifluoromethyl)-1,2,4-oxadiazol-3-yl]phenyl]methyl] tetrahydrofuran-3-carboxamide] | ≥ 80 | ≥ 80 | ≥ 80 | ≥ 80 | ≥ 80 | – |
| Cc1cccc(C)c1C(=O)NCc1ccc(-c2noc(C(F)(F)F)n2)cc1 [Compound 1.19, 2,6-dimethyl-N-[[4-[5-(trifluoromethyl)-1,2,4-oxadiazol-3-yl]phenyl]methyl]benzamide] | ≥ 80 | ≥ 80 | ≥ 80 | ≥ 80 | – | – |
| CC1(C(=O)NCc2ccc(-c3noc(C(F)(F)F)n3)cc2)CC1(Cl)Cl (stereo not shown) [Compound 1.20, 2,2-dichloro-1-methyl-N-[[4-[5-(trifluoromethyl)-1,2,4-oxadiazol-3-yl]phenyl]methyl] cyclopropanecarboxamide] | ≥ 80 | ≥ 80 | ≥ 80 | – | – | – |
| COc1ccccc1CC(=O)NCc1ccc(-c2noc(C(F)(F)F)n2)cc1 [Compound 1.23, 2-(2-methoxyphenyl)-N-[[4-[5-(trifluoromethyl)-1,2,4-oxadiazol-3-yl]phenyl]methyl]acetamide] | – | ≥ 80 | ≥ 80 | – | ≥ 80 | – |
| O=C(Cc1ccccc1)NCc1ccc(-c2noc(C(F)(F)F)n2)cc1 [Compound 1.26, 2-phenyl-N-[[4-[5-(trifluoromethyl)-1,2,4-oxadiazol-3-yl]phenyl]methyl]acetamide] | ≥ 80 | ≥ 80 | ≥ 80 | ≥ 80 | ≥ 80 | – |
| O=C(NCc1ccc(-c2noc(C(F)(F)F)n2)cc1)C1CCSCC1 [Compound 1.27, N-[[4-[5-(trifluoromethyl)-1,2,4-oxadiazol-3-yl]phenyl]methyl] tetrahydrothiopyran-4-carboxamide] | – | ≥ 80 | ≥ 80 | ≥ 80 | – | – |
| O=C(Cc1ccc(Cl)cc1)NCc1ccc(-c2noc(C(F)(F)F)n2)cc1 [Compound 1.29, 2-(4-chlorophenyl)-N-[[4-[5-(trifluoromethyl)-1,2,4-oxadiazol-3-yl]phenyl]methyl]acetamide] | – | ≥ 80 | ≥ 80 | ≥ 80 | – | – |
| N#Cc1ccc(CC(=O)NCc2ccc(-c3noc(C(F)(F)F)n3)cc2)cc1 [Compound 1.30, 2-(4-cyanophenyl)-N-[[4-[5-(trifluoromethyl)-1,2,4-oxadiazol-3-yl]phenyl]methyl]acetamide] | – | ≥ 80 | ≥ 80 | ≥ 80 | – | – |
| O=C(CC1CC1(F)F)NCc1ccc(-c2noc(C(F)(F)F)n2)cc1 (stereo not shown) [Compound 1.32, 2-(2,2-difluorocyclopropyl)-N-[[4-[5-(trifluoromethyl)-1,2,4-oxadiazol-3-yl]phenyl]methyl]acetamide] | ≥ 80 | ≥ 80 | ≥ 80 | ≥ 80 | ≥ 80 | – |
| O=C(Cc1ccc(C(F)(F)F)cc1)NCc1ccc(-c2noc(C(F)(F)F)n2)cc1 [Compound 1.34, N-[[4-[5-(trifluoromethyl)-1,2,4-oxadiazol-3-yl]phenyl]methyl]-2-[4-(trifluoromethyl)phenyl] acetamide] | – | ≥ 80 | ≥ 80 | – | – | – |
| O=C(NCc1ccc(-c2noc(C(F)(F)F)n2)cc1)c1ccc(Cl)cc1 [Compound 1.36, 4-chloro-N-[[4-[5-(trifluoromethyl)-1,2,4-oxadiazol-3-yl]phenyl]methyl]benzamide] | ≥ 80 | ≥ 80 | ≥ 80 | – | – | – |
| COc1cccc(C2(C(=O)NCc3ccc(-c4noc(C(F)(F)F)n4)cc3)CC2)c1 [Compound 1.37, 1-(3-methoxyphenyl)-N-[[4-[5-(trifluoromethyl)-1,2,4-oxadiazol-3-yl]phenyl]methyl] cyclopropanecarboxamide] | – | ≥ 80 | – | – | ≥ 80 | – |
| O=C(NCc1ccc(-c2noc(C(F)(F)F)n2)cc1)C1(c2ccc(Cl)cc2)CC1 [Compound 1.39, 1-(4-chlorophenyl)-N-[[4-[5-(trifluoromethyl)-1,2,4-oxadiazol-3-yl]phenyl]methyl] cyclopropanecarboxamide] | – | ≥ 80 | – | ≥ 80 | – | – |
| O=C(NCc1ccc(-c2noc(C(F)(F)F)n2)cc1)c1ccccc1 [Compound 1.40, N-[[4-[5-(trifluoromethyl)-1,2,4-oxadiazol-3-yl]phenyl]methyl]benzamide] | ≥ 80 | ≥ 80 | ≥ 80 | – | ≥ 80 | – |
| O=C(NCc1ccc(-c2noc(C(F)(F)F)n2)nc1)C1CCCO1 (stereo not shown) [Compound 1.94, N-[[6-[5-(trifluoromethyl)-1,2,4-oxadiazol-3-yl]-3-pyridyl]methyl] tetrahydrofuran-2-carboxamide] | – | – | – | – | ≥ 80 | 84 to 88 |
| O=C(NCc1ccc(-c2noc(C(F)(F)F)n2)nc1)c1ccccc1Cl [Compound 1.95, 2-chloro-N-[[6-[5-(trifluoromethyl)-1,2,4-oxadiazol-3-yl]-3-pyridyl]methyl] benzamide] | – | – | ≥ 80 | – | – | 106 to 113 |
| O=C(NCCc1ccc(-c2noc(C(F)(F)F)n2)cc1)c1ccccc1Cl [Compound 1.99, 2-chloro-N-[2-[4-[5-(trifluoromethyl)-1,2,4-oxadiazol-3-yl]phenyl]ethyl]benzamide] | – | – | ≥ 80 | ≥ 80 | – | 133 to 140 |
